According to patent publication US10085976B2, “Pharmaceutical composition for preventing or treating neurodegenerative diseases” (AJOU UNIVERSITY INDUSTRY-ACADEMIC COOPERATION FOUNDATION, priority 2015, dated 2018):

Assays:
rat primary microglia = assay: Phagocytosis assay with fluorescent microspheres, aggregated α-syn-treated rat primary microglia; format: cell-based; conditions: 20 μM pre-incubation 30 minutes, then 1 NM of aggregated α-syn and fluorescent microspheres for 12 hours, FIG. 4E
Protocol: (§1) FIGS. 4D and 4E are graphs showing phagocytic activity after pre-incubating BV-2 cell and rat primary microglia with 20 μM of NSC87877 as an SHP-1 inhibitor for 30 minutes, and then incubating them with 1 NM of aggregated α-syn and fluorescent microspheres for 12 hours. ** P<0.01 represents a comparison with the control group.
(§2) Further, BV-2 cells, a murine microglial cell line, were grown in Dulbecco's modified Eagle's Medium (DMEM) supplemented with 5% fetal bovine serum (FBS) and maintained at 37° C. in a humidified atmosphere of 5% CO2. Rat primary microglia from the cerebral cortices of 1-day-old Sprague-Dawley rats were cultured as described in the known literature (Kim, K. S., et al., 2012. J Biol Chem. 287, 24862-72.).
(§3) Briefly, BV-2 cells (5×10^4 cells per well) were cultured in a 12 well plate overnight. The medium was then removed and replaced with fresh DMEM containing 5% FBS. […] The five random fields of cells (>100 cells) were counted under a confocal microscope (Zeiss, Germany). Percentage of phagocytic cells was analyzed by a known method (Park, J. Y., et al., 2008. Glia. 56, 1215-23.). For cell viability assay, BV-2 cells were treated with 1 μM of aggregated α-syn for 12 hours, and then LDH release was measured using an LDH-cytotoxicity assay kit (Biovision, CA) according to the manufacturer's instructions. […]

rat microglia = assay: α-syn propagation, two-chamber co-culture with α-syn-overexpressed SH-SY5Y cells, immunostaining (primary microglia); format: cell-based; conditions: vs PBS-treated group, FIGS. 10C, 10F
Protocol: FIGS. 10C and 10F are images and graphs showing that α-syn propagation was reduced in rat microglia by treatment of the SHP-1/2 inhibitor, NSC87877. Scale bar indicates 20 μm, and *** P<0.001 represents a comparison with the PBS-treated group.
(§4) The prepared SHP-1 knockdown SH-SY5Y dopaminergic neuronal cell lines (SHP-1 KD1 and SHP-1 KD2) were co-cultured with α-syn-overexpressed SH-SY5Y dopaminergic neuronal cell line using the two-chamber system for 12 hours. The co-culture is briefly summarized as follows. SH-SY5Y or BV2 or OLN93 cell was seeded at a density of 4×10^4 cell per well on a 12-well cover glass, and α-syn-overexpressed SH-SY5Y cell was seeded at a density of 4×10^4 cell per well on a 12-well transwell. Each of the cells was incubated for one day, and then the transwell (α-syn-overexpressed SH-SY5Y cell) was transferred to the 12-well cover glass (SH-SY5Y cell), followed by co-culture for 12 hours, and then immunostaining.

BV-2 cells [1] = assay: α-syn propagation, two-chamber co-culture with α-syn-overexpressed SH-SY5Y cells, immunostaining (BV-2); format: cell-based, murine; conditions: co-culture 12 hours, vs PBS-treated group, FIGS. 10B, 10E
Protocol: FIGS. 10B and 10E are images and graphs showing that α-syn propagation was reduced by treatment of SHP-1/2 inhibitor, NSC87877. *** P<0.001 represents a comparison with the PBS-treated group.
as §4

SH-SY5Y cells = assay: α-syn propagation, two-chamber co-culture with α-syn-overexpressed SH-SY5Y cells, immunostaining (SH-SY5Y); format: cell-based, human; conditions: co-culture 12 hours, vs PBS-treated group, FIGS. 10I, 10K
Protocol: FIGS. 10I and 10K are images and graphs showing that propagation of aggregated α-syn is reduced in SH-SY5Y cell line treated with the SHP-1,2 inhibitor NSC87877, similar to the SHP-1 knockdown cells. *** P<0.001 represents a comparison with the PBS-treated group.
as §4

[2] = system: differentiated SH-SY5Y cells; assay: LDH release cytotoxicity assay, aggregated α-syn on differentiated SH-SY5Y dopaminergic neurons; format: cell-based, human; conditions: 1 μM aggregated α-syn and 50 μM inhibitor for 2 days, FIG. 12B
Source text: FIG. 12B is a graph showing the effect of the SHP-1/2 inhibitor, NSC87877 on cytotoxicity of aggregated α-syn in undifferentiated SH-SY5Y cells and differentiated SH-SY5Y cells.
FIGS. 12C and 12D are images and graphs showing the effect of the SHP-1/2 inhibitor, NSC87877 on cytotoxicity of aggregated α-syn in differentiated SH-SY5Y cells. ** P<0.01 represents a comparison with the PBS-treated SHSY5Y.
To differentiate SH-SY5Y cells to dopaminergic neurons, SH-SY5Y cells seeded in a culture plate were cultured in a medium containing 50 μM of retinoic acid for 5 days. In this regard, the medium was replaced by a fresh medium containing 50 μM of retinoic acid at 3 days, 4 days, and 5 days after initiation of the culture. Further, in order to assess cytotoxicity, the differentiated SH-SY5Y dopaminergic neurons and undifferentiated SH-SY5Y dopaminergic neurons were seeded in 12-well, respectively, followed by incubation for one day. Thereafter, they were cultured in a medium containing 1 μM of aggregated α-syn and 50 μM of the SHP-1/-2 inhibitor NSC87877 for 2 days, and LDH (lactate dehydrogenase) release assay was performed according to the manufacturer's instructions.

OLN 93 cell line = assay: α-syn propagation, two-chamber co-culture with α-syn-overexpressed SH-SY5Y cells, immunostaining (OLN 93); format: cell-based; conditions: OLN 93 cells; co-culture 12 hours; vs PBS-treated group; FIGS. 10N, 10P
Protocol: FIGS. 10N and 10P are images and graphs showing that propagation of α-syn is reduced in OLN 93 cell line treated with the SHP-1,2 inhibitor NSC87877. *** P<0.001 represents a comparison with the PBS-treated group.
as §4

[3] = system: A53Tα-syn-overexpressed SHSY5Y cells; assay: Intracellular aggregation of eGFP-tagged A53T α-syn in co-culture, confocal microscopy; format: cell-based, human; conditions: co-culture with α-syn-overexpressed SHSY5Y, 5 days after treatment; FIG. 14C
Protocol: FIG. 14C is an image of confocal microscopy after differentiation with retinoic acid for 5 days in the co-culture of A53Tα-syn-overexpressed SHSY5Y and α-syn-overexpressed SHSY5Y under treatment of the SHP-1/2 inhibitor, NSC87877. Scale bar indicates 20 μm.
First, eGPF-tagged A53Tα-syn-overexpressed SHSY5Y cell line was prepared using lentivirus, and the prepared eGPP-tagged A53Tα-syn-overexpressed SHSY5Y cell line and α-syn-overexpressed SHSY5Y cell line were mixed, followed by co-culture. […] At 5 days after the co-culture, intracellular distribution of eGFP-tagged A53Tα-syn was observed under confocal microscopy.
In this regard, the SHP-1/2 inhibitor, NSC87877 was treated and A53Tα-syn-overexpressed SHSY5Y cell line and α-syn-overexpressed SHSY5Y cell line were mixed, followed by co-culture. At 5 days after NSC 87877 treatment and co-culture, intracellular distribution of eGFP-tagged A53Tα-syn was observed under confocal microscopy.

BV-2 cells [4] = assay: Phagocytosis assay with fluorescent microspheres, aggregated α-syn-treated BV-2 cells; format: cell-based, murine; conditions: 20 μM pre-incubation 30 minutes, then 1 NM of aggregated α-syn and fluorescent microspheres for 12 hours, FIG. 4D
Protocol: as §1, §2, §3

## O=S(=O)(O)c1ccc2cc(N=Nc3cc(S(=O)(=O)O)c4cccnc4c3O)ccc2c1 [NSC87877]
Rat primary microglia
  Effect on inhibition of microglial phagocytosis by aggregated α-syn: efficiently rescued the inhibitory effect of aggregated α-syn on microglial phagocytosis
Rat microglia
  α-syn propagation: reduced α-syn propagation was observed
BV-2 cells [1]
  α-syn propagation: α-syn propagation was also reduced
SH-SY5Y cells
  α-syn propagation: α-syn propagation was also reduced
[2]
  Neurotoxicity (cytotoxicity, LDH release) by aggregated α-syn: neurotoxicity by aggregated α-syn was reduced
OLN 93 cell line
  α-syn propagation: α-syn propagation was also reduced
[3]
  Intracellular aggregation of eGFP-tagged A53Tα-syn (eGFP distribution): no aggregation in the cells
BV-2 cells [4]
  Effect on inhibition of microglial phagocytosis by aggregated α-syn: efficiently rescued the inhibitory effect of aggregated α-syn on microglial phagocytosis
